Values after ≈ are worked out from the molar mass of the structure shown. Active and inactive are the calls of the source. The rule behind the calls is not given here.
What was measured:
[1] = biological target: T1, Kinesin-like protein KIF20B (Homo sapiens, UniProt Q96Q89); details: 1 to 20 uM
[2] = Apparent passive permeability of the compound at 10 uM after 5 hrs by PAMPA; assay type: ADME; details: pampa, 5 h, 10 µM
[3] = Cytotoxicity against human UM-UC-3 cells assessed as growth inhibition after 72 hrs by Alamar Blue assay; assay type: functional, cell-based; details: UMUC3, 72 h
[4] = Cytotoxicity against human HCT116 cells assessed as growth inhibition after 72 hrs by Alamar Blue assay; assay type: functional, cell-based; details: HCT-116, 72 h
[5] = biological target: T2, Centromere-associated protein E (Homo sapiens, UniProt Q02224); assay: Inhibition of basal ATPase activity of human CENP-E by pyruvate kinase/lactate dehydrogenase-linked assay
[6] = biological target: T3, Kinesin-like protein KIF23 (Homo sapiens) (UniProt Q02241); assay: Inhibition of microtubule-stimulated ATPase activity of human MKLP-1 at 200 uM by pyruvate kinase/lactate dehydrogenase-linked assay
T3 sequence (whole entry): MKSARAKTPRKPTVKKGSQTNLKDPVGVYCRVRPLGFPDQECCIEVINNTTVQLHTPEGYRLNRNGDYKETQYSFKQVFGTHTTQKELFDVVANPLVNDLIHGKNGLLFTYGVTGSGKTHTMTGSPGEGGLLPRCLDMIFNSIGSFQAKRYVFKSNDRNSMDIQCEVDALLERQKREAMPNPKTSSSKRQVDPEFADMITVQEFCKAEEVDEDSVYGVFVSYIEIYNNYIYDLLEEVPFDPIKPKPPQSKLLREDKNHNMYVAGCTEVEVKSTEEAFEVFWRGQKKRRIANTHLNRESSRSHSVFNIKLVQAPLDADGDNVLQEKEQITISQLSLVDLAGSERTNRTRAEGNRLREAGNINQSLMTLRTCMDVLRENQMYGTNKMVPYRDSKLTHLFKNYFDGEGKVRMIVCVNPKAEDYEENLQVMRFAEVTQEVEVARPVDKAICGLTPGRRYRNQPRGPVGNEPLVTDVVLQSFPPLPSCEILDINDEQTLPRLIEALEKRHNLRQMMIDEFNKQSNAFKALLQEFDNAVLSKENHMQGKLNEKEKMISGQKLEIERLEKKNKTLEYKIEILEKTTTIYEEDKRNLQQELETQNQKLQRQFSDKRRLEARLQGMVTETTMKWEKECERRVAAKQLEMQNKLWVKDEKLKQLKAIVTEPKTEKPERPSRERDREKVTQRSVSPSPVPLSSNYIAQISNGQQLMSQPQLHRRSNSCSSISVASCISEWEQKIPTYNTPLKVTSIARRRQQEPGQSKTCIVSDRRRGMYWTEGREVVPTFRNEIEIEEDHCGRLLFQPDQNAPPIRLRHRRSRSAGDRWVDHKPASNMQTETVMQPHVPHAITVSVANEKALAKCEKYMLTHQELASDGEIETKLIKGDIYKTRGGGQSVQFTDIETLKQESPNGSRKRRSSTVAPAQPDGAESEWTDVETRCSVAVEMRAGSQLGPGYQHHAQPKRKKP

[7] = biological target: T2, Centromere-associated protein E; assay: Inhibition of microtubule-stimulated ATPase activity of human CENP-E by pyruvate kinase/lactate dehydrogenase-linked assay
[8] = biological target: T1, Kinesin-like protein KIF20B; assay: Inhibition of basal ATPase activity of N-terminal His6-tagged/SUMO-fused human MPP1 motor domain (2 to 477 residues) expressed in Escherichia coli BL21 CodonPlus by pyruvate kinase/lactate dehydrogenase-linked assay
[9] = Solubility of the compound in phosphate buffered saline at pH 7.4 after 2 hrs by turbidimetric method; assay type: physicochemical
[10] = n-octanol-buffer distribution co-efficient, log D of the compound at pH 7.4 by shake flask method; assay type: physicochemical
[11] = Cytotoxicity against human BxPC3 cells assessed as growth inhibition after 72 hrs by Alamar Blue assay; assay type: functional, cell-based; details: BXPC-3, 72 h
[12] = biological target: T1, Kinesin-like protein KIF20B; details: 1 to 20 uM; remark: listed apart in the source
[13] = Intrinsic clearance in human liver microsomes assessed per mg of protein at 3 uM after 5 to 60 mins by LC-MS/MS method; assay type: ADME; details: read-out: CLH
[14] = Solubility of the compound in phosphate buffered saline at pH 2 after 2 hrs by turbidimetric method; assay type: physicochemical
[15] = biological target: T1, Kinesin-like protein KIF20B; assay: Inhibition of basal ATPase activity of N-terminal His6-tagged/SUMO-fused human MPP1 motor domain (57 to 491 residues) expressed in Escherichia coli BL21 CodonPlus in presence of 0.1% Tween-20 by pyruvate kinase/lactate dehydrogenase-linked assay

T1 sequence (Q96Q89 whole entry): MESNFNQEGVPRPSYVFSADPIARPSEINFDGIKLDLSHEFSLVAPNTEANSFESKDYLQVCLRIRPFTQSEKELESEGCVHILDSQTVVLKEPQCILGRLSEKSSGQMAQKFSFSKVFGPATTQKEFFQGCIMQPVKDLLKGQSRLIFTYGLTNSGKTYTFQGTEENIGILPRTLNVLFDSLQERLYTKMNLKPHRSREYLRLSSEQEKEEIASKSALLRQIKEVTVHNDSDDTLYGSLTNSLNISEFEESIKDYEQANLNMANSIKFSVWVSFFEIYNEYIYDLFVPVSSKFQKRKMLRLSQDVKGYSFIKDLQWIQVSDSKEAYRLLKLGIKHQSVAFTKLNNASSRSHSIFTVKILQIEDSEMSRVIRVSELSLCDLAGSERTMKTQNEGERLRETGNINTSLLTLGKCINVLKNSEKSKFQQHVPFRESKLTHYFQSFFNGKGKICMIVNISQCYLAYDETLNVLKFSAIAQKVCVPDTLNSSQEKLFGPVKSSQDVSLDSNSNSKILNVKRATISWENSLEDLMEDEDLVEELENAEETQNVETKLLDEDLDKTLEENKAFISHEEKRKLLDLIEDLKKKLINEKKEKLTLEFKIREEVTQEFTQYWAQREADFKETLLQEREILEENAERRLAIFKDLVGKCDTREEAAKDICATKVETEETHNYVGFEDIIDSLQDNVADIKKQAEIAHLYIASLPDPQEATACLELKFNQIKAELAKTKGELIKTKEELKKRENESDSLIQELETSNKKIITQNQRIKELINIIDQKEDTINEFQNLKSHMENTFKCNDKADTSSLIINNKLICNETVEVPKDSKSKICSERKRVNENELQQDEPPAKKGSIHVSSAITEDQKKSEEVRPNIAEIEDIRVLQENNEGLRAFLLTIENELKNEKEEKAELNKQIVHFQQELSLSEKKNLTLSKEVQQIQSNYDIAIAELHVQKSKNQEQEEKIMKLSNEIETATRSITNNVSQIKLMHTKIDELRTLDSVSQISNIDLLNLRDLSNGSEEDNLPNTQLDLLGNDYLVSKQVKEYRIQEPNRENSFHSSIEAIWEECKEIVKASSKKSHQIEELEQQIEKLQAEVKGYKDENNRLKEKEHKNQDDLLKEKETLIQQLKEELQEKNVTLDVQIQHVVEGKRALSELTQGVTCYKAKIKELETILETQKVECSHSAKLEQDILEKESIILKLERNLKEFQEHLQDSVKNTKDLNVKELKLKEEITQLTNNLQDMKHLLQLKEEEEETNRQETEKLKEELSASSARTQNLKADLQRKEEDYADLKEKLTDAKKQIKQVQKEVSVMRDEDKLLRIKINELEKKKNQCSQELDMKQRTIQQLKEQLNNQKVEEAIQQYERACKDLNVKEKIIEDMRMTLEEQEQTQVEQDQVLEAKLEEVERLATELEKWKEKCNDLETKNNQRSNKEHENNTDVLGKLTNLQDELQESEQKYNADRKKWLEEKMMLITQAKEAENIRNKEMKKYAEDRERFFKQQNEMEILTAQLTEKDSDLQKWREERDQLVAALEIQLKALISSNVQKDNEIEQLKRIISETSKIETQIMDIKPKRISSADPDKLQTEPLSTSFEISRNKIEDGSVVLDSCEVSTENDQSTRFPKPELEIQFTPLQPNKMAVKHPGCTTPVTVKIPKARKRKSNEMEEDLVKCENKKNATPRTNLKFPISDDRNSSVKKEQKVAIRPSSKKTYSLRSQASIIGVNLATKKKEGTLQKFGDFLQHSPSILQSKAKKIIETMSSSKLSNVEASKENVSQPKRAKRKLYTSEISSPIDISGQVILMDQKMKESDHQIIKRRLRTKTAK
T2 sequence (Q02224 whole entry): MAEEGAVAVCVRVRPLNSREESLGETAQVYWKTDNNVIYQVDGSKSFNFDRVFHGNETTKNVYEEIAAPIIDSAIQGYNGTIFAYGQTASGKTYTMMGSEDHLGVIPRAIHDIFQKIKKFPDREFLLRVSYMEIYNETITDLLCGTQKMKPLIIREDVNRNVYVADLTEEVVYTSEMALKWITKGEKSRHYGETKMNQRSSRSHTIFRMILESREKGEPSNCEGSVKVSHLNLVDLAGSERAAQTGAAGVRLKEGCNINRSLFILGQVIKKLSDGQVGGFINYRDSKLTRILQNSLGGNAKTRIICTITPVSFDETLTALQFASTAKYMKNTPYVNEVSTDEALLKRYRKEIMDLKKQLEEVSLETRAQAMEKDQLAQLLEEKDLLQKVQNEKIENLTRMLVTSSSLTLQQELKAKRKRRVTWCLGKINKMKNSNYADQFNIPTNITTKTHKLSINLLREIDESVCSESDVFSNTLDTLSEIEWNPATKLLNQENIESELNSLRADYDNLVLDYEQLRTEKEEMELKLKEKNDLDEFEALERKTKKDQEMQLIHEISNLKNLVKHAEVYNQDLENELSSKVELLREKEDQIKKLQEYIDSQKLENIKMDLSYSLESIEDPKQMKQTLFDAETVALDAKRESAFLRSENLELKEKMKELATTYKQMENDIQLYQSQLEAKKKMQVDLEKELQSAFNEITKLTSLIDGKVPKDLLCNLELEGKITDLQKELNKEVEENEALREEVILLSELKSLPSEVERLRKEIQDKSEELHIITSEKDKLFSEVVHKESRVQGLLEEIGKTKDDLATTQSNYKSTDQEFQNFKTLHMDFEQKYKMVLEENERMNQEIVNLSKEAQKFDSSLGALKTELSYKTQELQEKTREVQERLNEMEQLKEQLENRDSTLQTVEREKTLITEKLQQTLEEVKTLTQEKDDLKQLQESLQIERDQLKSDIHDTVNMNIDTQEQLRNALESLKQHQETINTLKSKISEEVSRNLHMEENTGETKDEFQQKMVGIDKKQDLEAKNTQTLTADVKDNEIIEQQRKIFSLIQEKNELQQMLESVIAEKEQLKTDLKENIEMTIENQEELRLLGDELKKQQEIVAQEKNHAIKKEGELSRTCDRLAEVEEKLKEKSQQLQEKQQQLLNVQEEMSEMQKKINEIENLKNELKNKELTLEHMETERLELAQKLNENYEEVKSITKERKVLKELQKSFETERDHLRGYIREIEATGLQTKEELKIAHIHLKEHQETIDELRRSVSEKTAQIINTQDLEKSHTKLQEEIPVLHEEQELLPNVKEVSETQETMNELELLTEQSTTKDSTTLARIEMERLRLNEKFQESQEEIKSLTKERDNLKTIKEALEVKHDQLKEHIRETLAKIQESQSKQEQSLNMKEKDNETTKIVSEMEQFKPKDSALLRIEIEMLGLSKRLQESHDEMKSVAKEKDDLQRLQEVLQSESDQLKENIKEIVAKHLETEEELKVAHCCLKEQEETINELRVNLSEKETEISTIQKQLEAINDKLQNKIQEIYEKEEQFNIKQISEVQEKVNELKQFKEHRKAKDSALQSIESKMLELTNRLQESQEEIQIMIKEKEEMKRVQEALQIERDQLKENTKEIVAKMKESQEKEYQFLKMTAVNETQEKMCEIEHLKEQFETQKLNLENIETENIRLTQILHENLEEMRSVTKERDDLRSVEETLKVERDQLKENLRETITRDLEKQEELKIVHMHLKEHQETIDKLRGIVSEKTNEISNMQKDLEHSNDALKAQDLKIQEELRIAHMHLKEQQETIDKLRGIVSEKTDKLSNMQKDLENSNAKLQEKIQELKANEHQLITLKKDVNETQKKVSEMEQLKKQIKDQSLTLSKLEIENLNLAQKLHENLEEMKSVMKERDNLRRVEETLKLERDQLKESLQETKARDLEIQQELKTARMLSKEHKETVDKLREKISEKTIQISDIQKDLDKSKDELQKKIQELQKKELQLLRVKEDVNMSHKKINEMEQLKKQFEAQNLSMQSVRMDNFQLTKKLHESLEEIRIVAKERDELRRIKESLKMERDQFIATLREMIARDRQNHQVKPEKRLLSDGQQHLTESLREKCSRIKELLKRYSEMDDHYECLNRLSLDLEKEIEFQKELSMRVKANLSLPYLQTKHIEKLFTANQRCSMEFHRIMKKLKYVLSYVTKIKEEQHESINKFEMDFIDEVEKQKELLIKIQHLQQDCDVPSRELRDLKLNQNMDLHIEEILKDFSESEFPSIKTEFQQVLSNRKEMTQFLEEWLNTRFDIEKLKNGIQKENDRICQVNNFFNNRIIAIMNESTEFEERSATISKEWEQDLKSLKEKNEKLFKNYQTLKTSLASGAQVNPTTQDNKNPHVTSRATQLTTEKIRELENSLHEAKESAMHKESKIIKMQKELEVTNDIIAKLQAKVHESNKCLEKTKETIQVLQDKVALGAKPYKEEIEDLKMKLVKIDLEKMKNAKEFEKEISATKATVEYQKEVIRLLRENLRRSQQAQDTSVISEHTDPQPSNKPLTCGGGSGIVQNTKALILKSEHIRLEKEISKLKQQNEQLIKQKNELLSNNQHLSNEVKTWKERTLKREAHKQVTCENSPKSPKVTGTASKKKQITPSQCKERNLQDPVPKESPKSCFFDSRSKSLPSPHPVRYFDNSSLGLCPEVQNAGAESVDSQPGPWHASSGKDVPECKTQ

- inhibition [1]: Active
- Papp [2]: Impermeable
- IC50 [5]: 29.6 µM
- inhibition [6]: 40%
- IC50 [7]: 91.4 µM
- IC50 [8]: 10.4 µM
- Imax [8]: 90%
- solubility kinetic at 2 h [9]: > 100 µM
- logD [10]: 3
- inhibition [12]: Active
- microsomal CLint at 3 µM [13]: 310 µL/min/mg
- solubility kinetic at 2 h [14]: 3.75 µM (≈ 1.76 µg/mL)
- inhibition [15]: Active
Structure (SMILES): CCCCCC(=O)Cc1cc(O)cc2c1C(=O)Oc1cc(O)c(C(=O)O)c(CCCCC)c1O2 [PHYSODIC ACID]
- EC50 [3]: 31.8 µM
- EC50 [4]: > 50 µM
- EC50 [11]: 37.3 µM
